Entries after “also recorded” stand apart in the source; their conditions may differ. Marks after values point to notes of the source that are not given here.
Key:
[1] = tested on: PDGF secretion by CHO cells producing rPDGF (CRL 9359/CRL9360); assay: Sandwich ELISA for PDGF in supernatant of CHO cells cultured with test peptide; assay type: cell-based, Chinese Hamster; conditions: library screening
Protocol: To identify peptides in a particular library which positively affected cell expression and secretion, each test peptide was added to a well containing a monolayer of chinese hamster ovary cells. The selected cells were anchorage-dependent CHO cells known to secrete platelet derived growth factor, which were initially grown on the tissue culture surfaces using a media with serum. After the monolayer was established, a chemically defined base media and a single test peptide were added to each well. In the present work, secretion of PDGF was assessed in the presence and absence of peptides from the library by collecting supernatant from each well and performing an ELISA specific for PDGF on the supernatant. The output was the absorbance at 492 nm. Secretion was evaluated in a basal medium rich in amino acids, the necessary vitamins, metals, carbon source and concensus CHO culture factors. PDGF levels were compared to known standards spiked into the media used for culture.
CHO cells are the most widely used animal cell lines in the field of biotechnology for the production of therapeutically important pharmaceuticals (Martin et al, REVIEW, J. of Biotechnology. Progress 1998 14, 807-833). The Chinese Hamster Ovary Cell Lines producing rPDGF (CRL 9359/CRL9360) were obtained from the American Type Culture Collection, 12301 Parklawn Drive, Rockville, Md. 20852. The depositor was Amgen Inc. of Thousand Oaks, Calif. Further details about the cell lines and expressed products can be found in U.S. Pat. No. 5,175,255.
Cells were propagated in DMEM/FI2 media with 5% serum at 37° C. between 5-7% CO2. Passages were limited to 5 prior to seeding and PDGF expression was monitored by western blot and ELISA. Cells were routinely seeded at a density of approximately 1×10^4 cells per 20 ml culture media that was placed in a 250 ml canted neck polystyrene tissue culture treated flask (Becton Dickinson). Cells were cultured to confluency and trypsinized to yield cells for seeding.
1A Media was used as a PDGF negative control (pre-culture), to hydrate the 40 ng PDGF standard (pre-culture), to hydrate test peptides (pre-culture) and to normalize all other test and control PDGF results (post-culture). The 1A media was prepared by adding the following components to a 500 ml bottle of DMEM/F12 (GIBCO cat. No. 11330-032): 2.5 ml of a 10 mM NEAA stock (GIBCO Catalog 11140-050); 10 ml of a 200 mM L-glutamine stock (GIBCO Catalog 25030-08); 1 ml of a 50 mg/ml gentamycin sulfate stock (GIBCO Catalog 15750-0601); 150 μl of a 100 μM methotrexate Stock (Sigma Catalog M8407); 0.5 ml of a 7.5 mg/ml insulin Stock (Sigma I-6634); 50 μl of a 1 mg/ml insulin-like growth factor-stock (Long R3 Factor, Sigma Catalog No. I-1271); 2.5 grams of bovine serum albumin (Sigma Catalog No. A-7906); and 0.5 ml of a 7.5 mg/ml holo-transferrin stock (Sigma T-1283).
The CHO model cell lines are adherent cultures that have never been adapted to a serum-free environment. Accordingly, media containing serum was used to seed wells. Two formats, Overlay (O) and Wash (W) were used to introduce media containing test peptides to adhered cells.
In the O-Format, compounds were gently added on top of the seeding media on the second day. In the O-Format, 9360 cells were seeded at 1,000 cells per 96 well in a 125 μl volume of 1A media with 1.5% serum. 1A media (−serum) containing 12 mM of test peptide was overlaid 2 days later for a final peptide concentration of 6 mM and 0.75% serum. Cell culture supernatant was collected from each test environment on day 10 for later PDGF assay.
In the W-Format, compounds were added on day 2 or 3 after the seeding media was removed. In the W-Format, 9359 and 9360 cells were seeded at 6,000 cells per 96 well in a 250 μl volume of DMEM/F12 with 5% serum. Three days later, the seeding media was removed and replaced with 250 μl of 1A media (−serum) containing 6 mM test peptide. Cell culture supernatant was collected on days 5 and 12 for later PDGF assay. […]

MC3T3 cells = assay: Oxygen biosensor assay of adherence and growth of MC3T3 cells on peptide-coated wells; assay type: cell-based, murine; conditions: for impact on MC3T3 growth (result in words): peptide or control adsorbed to surface, compared with uncoated surface or controls
Protocol: To identify peptides in a particular library which positively affected cell growth in cell culture, the library was screened in a growth assay. The selected cells were anchorage-dependent MC3T3 cells, which were grown on tissue culture surfaces which had been pre-coated with peptides of the present invention. The screening medium used to evaluate peptides in the library was a low serum medium allowing evaluation of peptide effects with low interference from undefined materials present in the medium. In the present work, growth of MC3T3 cells was assessed in the presence and absence of the peptides in the library which were present in the form of a dried film on a tissue culture substrate. Growth was evaluated in a basal medium rich in amino acids and containing the necessary vitamins, metals and simple carbon source. After an appropriate incubation time, growth of each peptide-supplemented culture is compared to growth of the unsupplemented culture. The extent of growth was evaluated using a Becton Dickinson oxygen sensor to detect oxygen consumption by the cells. The cell number in each well containing a particular peptide was then assessed indirectly with a flurometer which measured fluorescence generated from a fluoroescent dye using band-pass filters of 465 nm for excitation and 590 nm for emission.
Briefly, the oxygen biosensor is based upon the fluoroscence of ruthenium dye which is quenched in the presence of oxygen. The dye is immobilized within an inert but highly permeable silicone matrix located at the bottom of microtiter wells. […] (Wodnicka, M., Guarino, R. D., Hemperly, J. J. Temmins, M. R., Stitt, D. and Pitner, J. B. (2000) J. of Biomolecular Screening 5:141-152)
MC3T3-E1 is a clonal line of murine calvaria-derived osteoblast (establishement of a clonal osteogenic Cell Line from Newborn Mouse Calvaria in Jpn J. Oral Biol 23, 899 (1981)).
MC3T3 cells were maintained in αMEM (GIBCO Catalog No: 12561) supplemented with 2% fetal calf serum (FCS, inactivated) and 100 units or μg/ml of penicillin/streptomycin for one month prior to use. Cells were routinely seeded at a density of approximately 1×10^4 cells per 20 ml culture media which was placed in a 250 ml canted neck polystyrene tissue culture treated flask (Becton Dickinson). Cells were cultured until approximately 2×10^6 cells were obtainable from each flask, which were resuspended in 5 ml of αMEM with 2% FCS for a final cell concentration of about 5×10^4 cells per 150 μl for peptide screening.
For determining the biological effects of library peptides and appropriate controls on MC3T3 cells, cells (5×10^4/150 μl) were grown in an 96 well oxygen sensor plate treated as described below:
Peptides for screening were obtained from either a MDL-400 library or an MDL-100 library. Fifty microliters of peptides at a 1 mM stock concentration in phosphate buffered saline were placed in wells of a 96 well oxygen sensor plate and dried in a reverse flow air hood overnight […].
Vitrogen-collagen-I was obtained from Cohesion (Palo Alto, Calif., Catalog No. FXP-019) and fibronectin was obtained from Sigma (Catalog No. F-0895). All other extracellular matrix (ECM) compounds were obtained from Becton Dickinson Labware, (Bedford, Mass.). Polylysine was obtained from Becton Dickinson Labware and RGDSP-rhodamine was from AnaSpec Inc. (San Jose, Calif.). Extracellular matrix components (ECM) or known peptides were used at the following stock concentrations:
Twenty-five microliters of stock concentrations of controls and 25 μl of phosphate buffered saline were placed in wells of a 96 well oxygen sensor plate and dried overnight as described above.
Cells grown on 96 well oxygen sensor plates treated as described above were monitored for growth using a Becton Dickinson oxygen biosensor. Growth was monitored at the following time points: 1 hours, 24 hours, 32 hours, 48 hours and 86 hours. Media was changed every three days. […]

With “FKFIG (Synthetic peptide selected for biological activity) [SEQ ID NO:5]” the “effect on PDGF expression/accumulation in CHO cells (result in words)” value [1] was “positive”, the “Abs at 590 nm (relative oxygen consumption), MDL-400 Library” value (MC3T3 cells; 86 hour time point, single peptide, 50 µl of 1 mM stock dried in well, value normalized to the well's initial reading) was 2.27* and the “impact on MC3T3 growth (result in words)” value (MC3T3 cells) was “positive; also recorded: significant difference in growth”. The “impact on MC3T3 growth (result in words)” value (MC3T3 cells; listed as FKFIG) was “positive”.

Reference: patent US7344884B2, “Peptides promoting cell adherence, growth and secretion” (Becton, Dickinson and Company, priority 2001, dated 2008)
